Measurements from patent publication US20090048218A1, “17Beta-CYANO-18A-HOMO-19-NOR-ANDROST-4-ENE DERIVATIVE, ITS USE AND MEDICAMENTS COMPRISING THE DERIVATIVE” (priority 2007, published 2009).
Like-named read-outs stand apart in the source and are kept apart here.

Columns and labels:
[1] = molecular target: T1, mineralcorticoid receptor (MR) (Homo sapiens, UniProt P08235); assay: MR antagonism, luciferase reporter cell line assay; format: cell-based
T1 sequence (P08235 1-984): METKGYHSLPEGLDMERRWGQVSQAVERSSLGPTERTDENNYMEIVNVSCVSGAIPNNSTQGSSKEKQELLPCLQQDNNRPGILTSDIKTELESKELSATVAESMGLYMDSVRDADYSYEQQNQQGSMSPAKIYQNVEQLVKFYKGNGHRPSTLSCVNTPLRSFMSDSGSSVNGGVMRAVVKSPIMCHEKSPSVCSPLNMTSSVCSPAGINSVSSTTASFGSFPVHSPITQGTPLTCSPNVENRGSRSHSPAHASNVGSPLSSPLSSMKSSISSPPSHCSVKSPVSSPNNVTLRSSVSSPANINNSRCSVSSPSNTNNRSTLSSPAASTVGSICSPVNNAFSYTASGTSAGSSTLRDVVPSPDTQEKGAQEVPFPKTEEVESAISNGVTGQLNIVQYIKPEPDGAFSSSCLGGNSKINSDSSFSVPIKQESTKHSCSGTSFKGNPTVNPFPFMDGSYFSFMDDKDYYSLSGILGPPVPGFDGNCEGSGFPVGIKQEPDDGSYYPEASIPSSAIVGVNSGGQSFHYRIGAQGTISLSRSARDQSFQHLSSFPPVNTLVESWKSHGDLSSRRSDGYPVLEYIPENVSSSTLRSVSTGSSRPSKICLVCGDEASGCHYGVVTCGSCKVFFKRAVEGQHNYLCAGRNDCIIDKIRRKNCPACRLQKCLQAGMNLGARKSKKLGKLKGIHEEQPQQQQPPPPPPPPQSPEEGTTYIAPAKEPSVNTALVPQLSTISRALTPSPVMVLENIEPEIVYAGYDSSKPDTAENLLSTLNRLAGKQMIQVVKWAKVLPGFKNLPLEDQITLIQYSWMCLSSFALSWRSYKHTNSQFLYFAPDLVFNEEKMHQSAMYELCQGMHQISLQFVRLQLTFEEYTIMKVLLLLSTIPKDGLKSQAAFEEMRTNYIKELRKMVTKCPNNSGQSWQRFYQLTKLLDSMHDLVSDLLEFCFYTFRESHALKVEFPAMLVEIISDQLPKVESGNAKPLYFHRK
Description: The derivatives according to the invention having the general chemical formula 1 have a very strong gestagenic activity. […] They should therefore have in vivo potassium-retaining, natriuretic (antimeralcorticoid) action. These properties were determined using the test described below:
For the culturing of the cells used for the assay, the culture medium used was DMEM (Dulbecco's Modified Eagle Medium: […] of glucose; PAA, #E15-009) with 10% FCS (Biochrom, S0115, batch #615B), 4 mM L-glutamine, 1% penicillin/streptomycin, 1 mg/ml of G418 and 0.5 μg/ml of puromycin.
Reporter cell lines were grown in a density of 4×10^4 cells per hollow in white, nontransparent tissue culture plates in each case having 96 hollows (PerkinElmer, #P12-106-017) and kept in 6% DCC—FCS (activated carbon-treated serum, for the removal of interfering components contained in the serum). The compounds to be investigated were added eight days later, and the cells were incubated with the compounds for 16 hours. The experiments were carried out in triplicate. At the end of the incubation, the effector-containing medium was removed and replaced by lysis buffer. After luciferase assay substrate (promega, #E1501) had been added, the plates containing the 96 hollows were then introduced into a microplate luminometer (Pherastar, BMG labtech), and the luminescence was measured. The IC50 values were evaluated using software for the calculation of dose-activity relationships.

PR = molecular target: T2, PR (Rattus norvegicus, UniProt Q63449); assay: maintenance of pregnancy test on the rat; format: in vivo; conditions: ovarectomized pregnant rats; for PR in vivo ED50 (pregnancy-maintaining dose): s.c. once daily from day 8 to day 15 or 21, with oestrone 5 μg/kg/day
T2 construct: The maintenance of pregnancy test on ovarectomized rats serves for the determination of the peripheral gestagenic activity of a compound; from tissue; host or cells: whole animal: pregnant, ovariectomized rats
T2 sequence (Q63449 1-923): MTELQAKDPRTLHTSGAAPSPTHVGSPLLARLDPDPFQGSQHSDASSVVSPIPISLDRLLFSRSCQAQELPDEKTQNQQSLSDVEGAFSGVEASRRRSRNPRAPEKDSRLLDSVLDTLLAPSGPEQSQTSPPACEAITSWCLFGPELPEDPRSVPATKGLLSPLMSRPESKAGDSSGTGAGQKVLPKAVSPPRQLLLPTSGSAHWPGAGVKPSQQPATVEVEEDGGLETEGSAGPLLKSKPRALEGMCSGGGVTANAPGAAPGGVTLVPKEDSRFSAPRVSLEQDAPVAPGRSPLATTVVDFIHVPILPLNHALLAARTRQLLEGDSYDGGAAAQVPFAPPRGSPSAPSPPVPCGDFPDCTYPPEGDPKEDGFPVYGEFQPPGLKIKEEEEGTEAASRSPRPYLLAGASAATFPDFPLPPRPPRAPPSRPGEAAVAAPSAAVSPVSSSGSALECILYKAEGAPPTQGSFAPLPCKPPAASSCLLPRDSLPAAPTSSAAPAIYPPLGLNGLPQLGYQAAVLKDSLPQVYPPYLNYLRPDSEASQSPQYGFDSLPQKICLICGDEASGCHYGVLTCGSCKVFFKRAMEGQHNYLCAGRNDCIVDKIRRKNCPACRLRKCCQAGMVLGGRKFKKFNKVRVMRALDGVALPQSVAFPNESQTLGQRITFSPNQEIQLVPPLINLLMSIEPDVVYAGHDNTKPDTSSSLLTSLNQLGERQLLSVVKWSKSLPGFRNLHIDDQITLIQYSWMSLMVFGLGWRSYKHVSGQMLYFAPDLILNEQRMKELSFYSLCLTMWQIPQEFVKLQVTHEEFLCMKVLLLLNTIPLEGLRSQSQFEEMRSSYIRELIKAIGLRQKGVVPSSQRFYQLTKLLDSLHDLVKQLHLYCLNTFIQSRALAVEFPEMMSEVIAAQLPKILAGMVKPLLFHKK
Text: Carrying out the maintenance of pregnancy test on the rat:
In pregnant rats, the removal of the corpora lutea or oophorectomy induces an abortion. By means of the exogenous administration of progestins (gestagens) in combination with a suitable dose of an oestrogen, the maintenance of pregnancy is possible. The maintenance of pregnancy test on ovarectomized rats serves for the determination of the peripheral gestagenic activity of a compound.
Rats were paired overnight during proestrus. Pairing was checked on the morning of the following day by the appraisal of a vaginal smear. The presence of the sperm was evaluated here as day 1 of a commencing pregnancy. On day 8 of the pregnancy, the animals were ovarectomized under ether anaesthesia. The treatment with test compound and exogenous oestrogen (oestrone, 5 μg/kg/day) was carried out subcutaneously once daily from day 8 to day 15 or day 21 of the pregnancy. The first administration on day 8 was carried out two hours before oophorectomy. Intact control animals were given exclusively vehicle.
At the end of the experiment (day 15 or day 21), the animals were sacrificed under a CO2 atmosphere, and live foetuses (foetuses having a beating heart) and implantation sites (early resorptions and dead foetuses including autolysis and atrophic placentas) were counted in both uterine horns. On day 22, it was moreover possible to examine foetuses for malformations. In uteri without foetuses or implantation sites, the number of nidation sites was determined by staining with 10% strength ammonium sulphide solution. The maintenance of pregnancy rate was calculated as the quotient of the number of living foetuses and the total number of nidation sites (both resorbed and dead foetuses and nidation sites). For drospirenone, this value is 3.5 mg/kg/day.

[2] = reporter cell lines, 16 hours incubation, luciferase luminescence, triplicate
[3] = reporter cell lines, 16 hours incubation, luciferase luminescence, triplicate, read-out: MR antagonism IC50

CC[C@]12CC[C@H]3[C@@H](CCC4=CC(=O)CC[C@@H]43)[C@@H]1[C@@H]1C[C@@H]1[C@@H]2C#N (single isomer, unassigned) [17β-Cyano-15β,16β-methylene-18a-homo-19-nor-androst-4-en-3-one]
IC50 [1]: 0.018 µM
MR antagonism activity [% of the maximum effect] [1, 2]: 103.44 % of the maximum effect
PR in vivo ED50 (pregnancy-maintaining dose) (PR): 0.01 mg/kg/d s.c.

CC[C@]12CC[C@H]3[C@@H]([C@H]4C[C@H]4C4=CC(=O)CC[C@@H]43)[C@@H]1[C@@H]1C[C@@H]1[C@@H]2C#N [17β-Cyano-6β,7β-15β,16β-bismethylene-18a-homo-19-nor-androst-4-en-3-one]
MR antagonism activity [% of the maximum effect] [1, 2]: 97.52 % of the maximum effect
IC50 [1, 3]: 0.0093 µM
PR in vivo ED50 (pregnancy-maintaining dose) (PR): 0.1 mg/kg/d s.c.

CC[C@]12CC[C@H]3[C@@H]([C@H](C)CC4=CC(=O)CC[C@@H]43)[C@@H]1CC[C@@H]2C#N [17β-Cyano-7α-methyl-18a-homo-19-nor-androst-4-en-3-one]
MR antagonism activity [% of the maximum effect] [1, 2]: 99.07 % of the maximum effect
IC50 [1, 3]: 0.016 µM

CC[C@]12CC[C@H]3[C@@H]([C@@H]4C[C@@H]4C4=CC(=O)CC[C@@H]43)[C@@H]1[C@@H]1C[C@@H]1[C@]2(C)C#N [17β-Cyano-17α-methyl-6α,7α-methylene-15β,16β-methylene-18a-homo-19-nor-androst-4-en-3-one]
MR antagonism activity [% of the maximum effect] [1, 2]: 89.49 % of the maximum effect
IC50 [1, 3]: 0.1 µM
PR in vivo ED50 (pregnancy-maintaining dose) (PR): 1.1 mg/kg/d s.c.

CC[C@]12CC[C@H]3[C@@H](CCC4=CC(=O)CC[C@@H]43)[C@@H]1[C@@H]1C[C@@H]1[C@]2(C)C#N [17β-Cyano-17α-methyl-15β,16β-methylene-18a-homo-19-nor-androst-4-en-3-one]
MR antagonism activity [% of the maximum effect] [1, 2]: 64.87 % of the maximum effect
IC50 [1, 3]: 0.00048 µM
PR in vivo ED50 (pregnancy-maintaining dose) (PR): 0.1 mg/kg/d s.c.

CC[C@]12CC[C@H]3[C@@H](CCC4=CC(=O)CC[C@@H]43)[C@@H]1CC[C@@H]2C#N [17β-Cyano-18a-homo-19-nor-androst-4-en-3-one]
MR antagonism activity [% of the maximum effect] [1, 2]: 94.48 % of the maximum effect
IC50 [1, 3]: 0.0091 µM
PR in vivo ED50 (pregnancy-maintaining dose) (PR): 2.3 mg/kg/d s.c.

C[C@]12CCC(=O)C=C1[C@@H]1C[C@@H]1[C@H]1[C@@H]3[C@@H]4C[C@@H]4[C@@]4(CCC(=O)O4)[C@@]3(C)CC[C@@H]12 [drospirenone, 6β, 7β-15β,16β-dimethylene-3-oxo-17-pregn-4-ene-21,17β-carbolactone, reference compound]
pregnancy-maintaining dose (ED50) (PR; subcutaneous, with oestrone 5 μg/kg/day): 3.5 mg/kg/day
